Laboratory results from US20050032646A1, “Agents for the regulation of gametophytic self-incompatibility and a control method for the breakdown of gametophytic self-incompatibility using the agents” (priority 2002, published 2005).
Blank lines part the entries; values can stand above or below the molecule they belong to.

How the values were obtained:
Lycopersicon peruvianum = experiment: Breakdown of the self-incompatibility in Lycopersicon peruvianum (fruition rate, greenhouse); format: in vivo
Protocol: To verify the inhibition of a style-specific S RNase and the suppression of SI system with an agent of the present invention in a practical cultivating Environment, a wild-type tomato (Lycopersicon peruvianum) which has a gametophytic SI system was cultivated in a greenhouse at genetically insulated environment and was treated with an S RNase inhibitor of the present invention.
To determine the treatment period of an S RNase inhibitor, the inhibitor was applied to flowers either at the early blooming period (budding formation period to full blooming), or the middle blooming period (full blooming), or the late blooming period (1 day after full blooming period of petal), respectively. Each inhibitors in 0.1 mM aqueous solution (except the ZnSO4 (1 mM) and CuSO4 (1.0 mM) solution) was treated enough to get-wet flowers ith a micro-spray at 9:00-11:00 AM when the pollination of plant occurs most actively. The experiment with 25 blooming flowers (organ containing a stamen, a stigma, a petal, etc.) was repeated 4 times and the fruition rate ws investigated and the results are shown in Table 2.

Hongro apple flowers = experiment: Side-effect of the agents toward Hongro apple flowers; format: in vivo; set-up: key: 0: no side-effect is observed, and it is same as no treatment of the agents; 1: the side-effect are observed in flowers, but they recover to normal fruition in a week; 2: a fall-out of flowers and 10% decrease in fruition rate; 3: about 40% loss; 4: 60% loss; 5: a severe loss in fruition
Protocol: To investigate the side-effect of the agent, various concentrations of the agents were treated to the flowers of Hongro apple.

20-Century pear = experiment: Breakdown of the self-incompatibility in 20-century pear (fertilization rate, field); format: in vivo; conditions: 600 μM, sprayed 5 and 2 days before full bloom, 14 days after the treatment
Protocol: In a field test, 20-Century pear (the Rosaceae) which has self-incompatibility system was isolated single-genetically by covering up selected branches or whole plants with a fine-meshed net to exclude any pollinating insects. The aqueous of 600 μM solution of an agent of the present invention was treated enough to get-wet flowers with a micro-spray at 9:00-11:00 AM. The agent solution was micro-sprayed 2 times; first at 5 days before full bloom and second at 2 days before full bloom. The reference was artificial cross-pollination at full bloom. The fertilization rate was investigated 14 days after the treatment and compared with no treatment and artificial cross-pollination.

[1] = system: style-specific S RNase of Fuji apple; experiment: Inhibition of the activity of a style-specific S RNase by the agents; format: biochemical; conditions: optical density at 260 nm (A260), agent 2.0 mM, no treatment 1.10
Protocol: Inhibition of S RNase activity by an agent of the present invention was measured as follows: The standard solution of 500 μL of 10 mM sodium phosphate (pH 7.0) with an agent (2.0 mM), and 500 μL of torula yeast rRNA (5 mg/mL) was pre-incubated for 10 min at 37° C. To the substrate solution, the 20 μL of the style-specific S RNase (200 ng) of Fuji apple was added, then the solution was incubated for 30 min at 37° C. A fraction of 200 μL was collected and 40 μL of stop buffer (ice-cold 25% HCIO4, 0.75% uranyl acetate) was added, then mixed and centrifuged at 12,000 rpm for 5 min. And 50 μL of the supernatant was diluted with 950 μL of dd H2O, then the solution was centrifuged and measured the optical density at 260 nm (A260) (Singh A. et al., Plant Physilolgy, 96: 61-68,1991).

Hongro apple = experiment: Breakdown of the self-incompatibility in Hongro apple (self-pollination rate, field); format: in vivo; conditions: 25 days after the treatment
Protocol: In the field application experiment, Hongro apple (the Rosaceae) which has a very low self-pollination rate (<5%) was isolated single-genetically by covering up whole plants with a fine-meshed net to exclude any pollinating insects. The agent of the present invention was treated enough to get-wet flowers at various concentrations with a micro-spray at 9:00-11:00 AM. The target of the agent was the first-blooming primary apple flower. The self-pollination rate was investigated 25 days after the treatment and compared with no treatment and artificial cross-pollination.

[2] = agent 0.1 mM, treated 1 day after full blooming
[3] = agent 0.1 mM, treated 1 day before full blooming
[4] = agent 0.1 mM, treated 2 days after full blooming
[5] = agent 0.1 mM, treated 2 days before full blooming
[6] = agent 0.1 mM, treated 3 days before full blooming
[7] = agent 0.1 mM, treated 4 days before full blooming
[8] = agent 0.1 mM, treated 5 days before full blooming
[9] = agent 0.1 mM, treated 6 days before full blooming
[10] = agent 0.1 mM, treated 7 days before full blooming
[11] = agent 0.1 mM, treated at full blooming (0 day)
[12] = agent 1.0 mM, treated 1 day after full blooming
[13] = agent 1.0 mM, treated 1 day before full blooming
[14] = agent 1.0 mM, treated 2 days after full blooming
[15] = agent 1.0 mM, treated 2 days before full blooming
[16] = agent 1.0 mM, treated 3 days before full blooming
[17] = agent 1.0 mM, treated 4 days before full blooming
[18] = agent 1.0 mM, treated 5 days before full blooming
[19] = agent 1.0 mM, treated 6 days before full blooming
[20] = agent 1.0 mM, treated 7 days before full blooming
[21] = agent 1.0 mM, treated at full blooming (0 day)

OD (2.0 mM) [1]: 0.63
SMILES: COCCOCCOCC(=O)[O-].COCCOCCOCC(=O)[O-].[Cu+2] [Cu(II) 2-(2-methoxyethoxy)ethoxyacetete, Cu(II) 2-(2-methoxyethoxy) ethoxyacetete]
fruition rate (Lycopersicon peruvianum; [2]): 0%
fruition rate (Lycopersicon peruvianum; [3]): >60%
fruition rate (Lycopersicon peruvianum; [4]): 0%
fruition rate (Lycopersicon peruvianum; [5]): >50%
fruition rate (Lycopersicon peruvianum; [6]): >10%
fruition rate (Lycopersicon peruvianum; [7]): <10%
fruition rate (Lycopersicon peruvianum; [8]): 0%
fruition rate (Lycopersicon peruvianum; [9]): 0%
fruition rate (Lycopersicon peruvianum; [10]): 0%
fruition rate (Lycopersicon peruvianum; [11]): >50%
side-effect index (Hongro apple flowers; 1.0 mM): 0
side-effect index (Hongro apple flowers; 5.0 mM): 0
side-effect index (Hongro apple flowers; 20.0 mM): 1
fertilization rate (20-Century pear): 53%

OD (2.0 mM) [1]: 0.65
SMILES: COCCOCC(=O)[O-].COCCOCC(=O)[O-].[Cu+2] [Cu(II) 2-methoxyethoxyacetate]
fruition rate (Lycopersicon peruvianum; [2]): 0%
fruition rate (Lycopersicon peruvianum; [3]): >50%
fruition rate (Lycopersicon peruvianum; [4]): 0%
fruition rate (Lycopersicon peruvianum; [5]): >40%
fruition rate (Lycopersicon peruvianum; [6]): >10%
fruition rate (Lycopersicon peruvianum; [7]): <10%
fruition rate (Lycopersicon peruvianum; [8]): 0%
fruition rate (Lycopersicon peruvianum; [9]): 0%
fruition rate (Lycopersicon peruvianum; [10]): 0%
fruition rate (Lycopersicon peruvianum; [11]): >40%
side-effect index (Hongro apple flowers; 1.0 mM): 0
side-effect index (Hongro apple flowers; 5.0 mM): 0
side-effect index (Hongro apple flowers; 20.0 mM): 2
fertilization rate (20-Century pear): 58%

OD (2.0 mM) [1]: 0.70
SMILES: O=C([O-])[C@H](O)[C@@H](O)[C@H](O)[C@H](O)CO.O=C([O-])[C@H](O)[C@@H](O)[C@H](O)[C@H](O)CO.[Cu+2] [Cu(II) Gluconate]
fertilization rate (20-Century pear): 51%

OD (2.0 mM) [1]: 0.70
SMILES: O=S(=O)([O-])[O-].[Cu+2] [CuSO4, reference compound]
self-pollination rate (Hongro apple; concentration 0.01 mM): 0%
self-pollination rate (Hongro apple; concentration 0.03 mM): 0%
self-pollination rate (Hongro apple; concentration 0.10 mM): 0%
self-pollination rate (Hongro apple; concentration 0.30 mM): 0%
self-pollination rate (Hongro apple; concentration 1.0 mM): <10%
fruition rate (Lycopersicon peruvianum; [12]): 0%
fruition rate (Lycopersicon peruvianum; [13]): 0%
fruition rate (Lycopersicon peruvianum; [14]): 0%
fruition rate (Lycopersicon peruvianum; [15]): 0%
fruition rate (Lycopersicon peruvianum; [16]): <5%
fruition rate (Lycopersicon peruvianum; [17]): <5%
fruition rate (Lycopersicon peruvianum; [18]): >10%
fruition rate (Lycopersicon peruvianum; [19]): >10%
fruition rate (Lycopersicon peruvianum; [20]): >10%
fruition rate (Lycopersicon peruvianum; [21]): 0%
side-effect index (Hongro apple flowers; 1.0 mM): 3
side-effect index (Hongro apple flowers; 5.0 mM): 5
side-effect index (Hongro apple flowers; 20.0 mM): 5

OD (2.0 mM) [1]: 0.62
SMILES: COCCOCCOCC(=O)[O-].COCCOCCOCC(=O)[O-].[Zn+2] [Zn(II) 2-(2-methoxyethoxy)ethoxyacetete, Zn(II) 2-(2-methoxyethoxy) ethoxyacetete]
fruition rate (Lycopersicon peruvianum; [2]): 0%
fruition rate (Lycopersicon peruvianum; [3]): >60%
fruition rate (Lycopersicon peruvianum; [4]): 0%
fruition rate (Lycopersicon peruvianum; [5]): >50%
fruition rate (Lycopersicon peruvianum; [6]): >10%
fruition rate (Lycopersicon peruvianum; [7]): <10%
fruition rate (Lycopersicon peruvianum; [8]): 0%
fruition rate (Lycopersicon peruvianum; [9]): 0%
fruition rate (Lycopersicon peruvianum; [10]): 0%
fruition rate (Lycopersicon peruvianum; [11]): >50%
side-effect index (Hongro apple flowers; 1.0 mM): 0
side-effect index (Hongro apple flowers; 5.0 mM): 0
side-effect index (Hongro apple flowers; 20.0 mM): 1
fertilization rate (20-Century pear): 51%

OD (2.0 mM) [1]: 0.73
SMILES: O=C([O-])[C@H](O)[C@@H](O)[C@H](O)[C@H](O)CO.O=C([O-])[C@H](O)[C@@H](O)[C@H](O)[C@H](O)CO.[Zn+2] [Zn(II) Gluconate]
fertilization rate (20-Century pear): 48%

OD (2.0 mM) [1]: 0.72
SMILES: O=S(=O)([O-])[O-].[Zn+2] [ZnSO4, reference compound]
self-pollination rate (Hongro apple; concentration 0.01 mM): 0%
self-pollination rate (Hongro apple; concentration 0.03 mM): 0%
self-pollination rate (Hongro apple; concentration 0.10 mM): 0%
self-pollination rate (Hongro apple; concentration 0.30 mM): 0%
self-pollination rate (Hongro apple; concentration 1.0 mM): <10%
fruition rate (Lycopersicon peruvianum; [12]): 0%
fruition rate (Lycopersicon peruvianum; [13]): 0%
fruition rate (Lycopersicon peruvianum; [14]): 0%
fruition rate (Lycopersicon peruvianum; [15]): 0%
fruition rate (Lycopersicon peruvianum; [16]): <5%
fruition rate (Lycopersicon peruvianum; [17]): >5%
fruition rate (Lycopersicon peruvianum; [18]): >5%
fruition rate (Lycopersicon peruvianum; [19]): >10%
fruition rate (Lycopersicon peruvianum; [20]): >10%
fruition rate (Lycopersicon peruvianum; [21]): 0%
side-effect index (Hongro apple flowers; 1.0 mM): 2
side-effect index (Hongro apple flowers; 5.0 mM): 5
side-effect index (Hongro apple flowers; 20.0 mM): 5
